The test system of series [1] is Sod2CJE(−/−) animals. The experiment in a line: Lipid in liver by Oil red-O staining, treated Sod2CJE(−/−) animals. The class given is in vivo, mouse. Also on record: key to Lipid Mode (score): 0=no observable lipid in sections; 1=mild diffuse speckled distribution of lipid; 2=more intense speckled pattern; 3=coalescence of small lipid droplets into large intercellular droplets; 4=massive intercellular lipid droplet accumulation. As to conditions: for accumulation of lipid in the liver: treated MnSOD-deficient homozygotes, qualitative; for Lipid % Control / Lipid Mean (score) / Lipid Mode (score): MnTBAP treated Sod2CJE(−/−); for Lipid % Control: control = untreated (−/−) 6-10 days; for Lipid Mean (score) / Lipid Mode (score): score 0-4. The source says:
(see also Table 2). […] The level of lipid in liver sections was scored as follows: 0=no observable lipid in sections, 1=mild diffuse speckled distribution of lipid, 2=more intense speckled pattern, 3=coalescence of small lipid droplets into large intercellular droplets, and 4=massive intercellular lipid droplet accumulation. Wild-type or heterozygotes treated with MnTBAP for 3 weeks had no observable difference in the morphology of the liver compared to untreated controls (+/+or +/−). The livers of 25 MnTBAP treated Sod2CJE(−/−) animals were examined at 12, 14 and 17 days of age (Table 2) and compared with treated wild type animals.
Assessment of the effect of MnTBAP treatment on liver morphology was carried out by blind assessment of wild-type and heterozygous animals chronically treated with compound for 3 weeks. Hematoxylin and Eosin stained sections from 27 treated homozygous normal (+/+) and heterozygous (+/−) animals were compared with 2 untreated control animals. To evaluate lipid in the liver of treated homozygous mutant MnSOD(−/−) animals, 8 u frozen sections were prepared and stained with Oil red O [Li et al. (1995) supra]. Each section was evaluated for the quantity and size of lipid droplets by arbitrarily scoring with a numerical value (Table 2). The ratings of multiple animals were then averaged.

For series [2], the system named is succinate dehydrogenase (SDH, Complex II). The experiment in a line: Histochemical staining of succinate dehydrogenase (SDH, Complex II) in tissue of treated MnSOD-deficient homozygotes. The class given is in vivo, mouse. The source says: Fat accumulates in the liver, where it can be detected by Oil Red O staining. […] By contrast, in Euk-8 treated animals both the lipid accumulation in the liver and SDH inhibition are rescued.

The next series deals with Sod2CJE(−/−) mice. The experiment in a line: Survival (lifespan) of Sod2CJE(−/−) mice given daily intraperitoneal test compound. It counts as in vivo, mouse. As to conditions: for mean life-span: Sod2CJE(−/−) pups, Euk-8 daily 30 mg/kg, MnTBAP-treated pups. On the procedure: Mice lacking functional MnSOD have been described by Li et al. (1995) Nature Genetics 11:376-381, incorporated herein by reference. The genotypes of one-day-old pups are determined by genetic analysis of tissue surgically excised from the toe or tail tip (2-3 mm). In these mice the third exon of the Sod2 gene has been deleted, thus, destroying the ability to synthesize an active mitochondrial MnSOD.
Litters were grouped into two sizes: large, >6 pups/litter of mutant, heterozygous and normal pups; and small, ≦6 Sod2CJE(−/−) pups/litter, in which the wild type and heterozygous pups were removed at three days of age to ensure that the homozygous mutant pups had unrestricted access to food and nurturing.
(§1) In most experiments, MnTBAP was prepared for injection by dissolving in 0.1 M NaOH, diluted with sterile water to a dosage level of 5 mg MnTBAP/kg, and administered by daily intra-peritoneal (IP) injections of between 10 and 45 μl, 2 hours post weighing, from 3 days of age. In addition to homozygous mutant animals, both heterozygotes and wild-type animals were injected to serve as controls. Wild-type or heterozygous Sod2CJE pups were sacrificed at the same age as Sod2CJE(−/−) pups to serve as controls.
Mouse pups are injected intraperitoneally with test compounds with a 50 microliter Hamilton syringe and a 31 G needle. The maximum volume administered to pups younger than 6 days of age is 20 μl. Injections are given daily, at the same time per day ±2 hours.
The MnTBAP stock solution is diluted down to the administered dose, which is dependent on body weight. For MnTBAP, the dosage is 5 mg/kg per day. Pups are weighed daily to allow calculation of the appropriate dosage.
Survival analysis was carried out by examining the animals daily to determine mortality, and entering the results into a life-table in the program Statistica (Statsoft, Tulsa, Okla.). Comparison between groups was carried out using the Kaplan and Meier survival function, non-parametric t-tests, and the Gehans Wilcoxon statistic from within the program to compare groups.
In general, experiments are carried out with Sod2CJE(−/−) mice, starting at 3 days of age, and the mice are weighed and divided into test and control groups. Test mice receive the compound for which evaluation as an antioxidant is desired at a dosage which is below the level of toxicity. Unless otherwise indicated, the test compound is administered in a pharmaceutically acceptable carrier by the intraperitoneal route. Unless otherwise determined to be advantageous, the test compound is administered at the same time each day (±2 hours).

The test system of series [3] is Sod2CJE(−/−) animals. The series is described as follows: Behavioral analysis and neuropathology of treated Sod2CJE(−/−) animals. As to conditions: for neurological and behavioral phenotype: treated Sod2CJE(−/−) mice. The class given is in vivo. On the procedure: Treated Sod2CJE(−/−) animals were observed daily from 10 days through to greater than five weeks for behavioral abnormalities compared to litter mate controls. Daily video recordings of up to 10 minutes were made to longitudinally track the development of behavioral changes. A total of 187 video recordings were made of 63 animals from 10 to 23 days of age.
For pathology, the brains were removed from the sacrificed animals and fixed in 10% buffered formalin for up to 7 days. They were then processed, embedded, and sectioned. In some cases representative sections were made every 20 sections or so at 7 microns thickness throughout the brain and stained with hematoxylin and eosin for examination by light microscopy. In other cases, the entire brain was sectioned at 8 microns throughout. Fifteen Sod2CJE(−/−) brains between 11 and 23 days of age were examined by hematoxylin and eosin staining and light microscopy in coronal, sagittal, or horizontal orientations with 17 controls in a blinded study (4 heterozygotes and 6 wild-types treated; and 2 heterozygotes and 5 wild-types untreated).
During the course of an experiment, each mouse is evaluated daily for weight, lethargy, lack of appetite, its vital signs and for any indication of neurological disorders (observed for circling behavior, dystonia, trembling or the like. Video records can be made for later evaluation, for example for side-by-side comparisons or for observing changes over time. Cardiac histopathology and central nervous system tissue analysis are carried out after death of the animal or after sacrifice of the animal.

The next series relates to cells. As to conditions: in vitro; cited from earlier work.
For series [4] the following is noted: mice, after the barrier is established at about 7-12 days of age; cited from earlier work.
Series [5] can be described thus: Transmission of orally administered compound to the milk of nursing mothers. It counts as in vivo, mouse. The source says: The skilled artisan understands how to test a particular compound for its toxicity in a particular mammal, for its ability to cross the blood-brain barrier and for its ability to enter the bloodstream and/or the cerebrospinal fluid. Preferred compounds are those which readily enter circulation and the central nervous system so that maximum amelioration of any disorder or disease resulting from oxidative damage, especially from superoxide radical.

In series [6] the test system is control animals (+/+, +/−). The experiment in a line: Pathology of liver, brain and heart in treated control animals (+/+, +/−). The class given is in vivo, mouse. The following applies: control animals (+/+, +/−) treated with MnTBAP. The procedure: as §1
For pathology, the brains were removed from the sacrificed animals and fixed in 10% buffered formalin for up to 7 days. They were then processed, embedded, and sectioned. In some cases representative sections were made every 20 sections or so at 7 microns thickness throughout the brain and stained with hematoxylin and eosin for examination by light microscopy. In other cases, the entire brain was sectioned at 8 microns throughout. […]
Assessment of the effect of MnTBAP treatment on liver morphology was carried out by blind assessment of wild-type and heterozygous animals chronically treated with compound for 3 weeks. […] Each section was evaluated for the quantity and size of lipid droplets by arbitrarily scoring with a numerical value (Table 2). […]

The conditions of series [7]: in vitro; cited from earlier work.
Series [8] has as its system Sod2CJE(−/−) animals. The series is described as follows: Cardiac measurements and histology in treated Sod2CJE(−/−) animals. It counts as in vivo, mouse. The following applies: 20-21 days of age. The procedure:
Cardiac dimensions were measured at 21 days of age for wild-type and heterozygous animals. These were compared with homozygous mutant animals treated with MnTBAP as described [Li et al. (1995) supra].

The mark [9] stands for this setting: SOD2−/− mice treated with free radical scavenging compounds (Table 4).
Where [10] appears, read: Sod2CJE(−/−), Large litter size (>6 pups), with MnTBAP, N=16.
The mark [11] stands for this setting: Sod2CJE(−/−), Small litter size (≦6 pups), with MnTBAP, N=15.
[12] abbreviates: Sod2CJE(−/−), all litter sizes, with MnTBAP 5 mg/kg daily IP, N=31, days of age.

Each structure is given as a SMILES string.

As to `[Cl-].[Mn+3].[O-]c1ccccc1C=NCCN=Cc1ccccc1[O-]` [Euk-8], the “accumulation of lipid in the liver” value in the series with Sod2CJE(−/−) animals [1] was “rescued”. In series [2], the “tissue SDH inhibition” value was “rescued”. In addition, in the series on Sod2CJE(−/−) mice (setting [9]), the “Mean Lifespan” value is reported as 22 days. Also, the mean life-span with Sod2CJE(−/−) mice was found to be 22 days. In addition, the “crossing of the blood brain barrier” value in the series on Sod2CJE(−/−) animals [3] (concluded from beneficial effects on neuronal function in Sod2CJE(−/−) mouse) is listed as “crosses the blood brain barrier”. Also, the “neurological and behavioral phenotype” value with Sod2CJE(−/−) animals [3] was “rescue of the neurological and behavioral phenotype”. In the series with Sod2CJE(−/−) animals [3] (treated Sod2CJE(−/−) mouse, at 17 days), the spongiform encephalopathy result was “absent”.
`O=C(O)c1ccc(-c2c3nc(c(-c4ccc(C(=O)O)cc4)c4ccc([nH]4)c(-c4ccc(C(=O)O)cc4)c4nc(c(-c5ccc(C(=O)O)cc5)c5ccc2[nH]5)C=C4)C=C3)cc1.[Mn]` [MnTBAP, Manganese 5,10,15,20-tetrakis(4-benzoic acid) porphyrin]: in the series on Sod2CJE(−/−) animals [1] (25 treated animals examined at 12, 14 and 17 days of age (2/25)), the “proportion of treated Sod2CJE(−/−) animals with liver lipid levels comparable to untreated Sod2CJE(−/−) animals of 6-10 days” value worked out at 8%. Further, the “Lipid % Control” value is 23% in the series with Sod2CJE(−/−) animals [1] (12 days old, n=9); 23% in the series on Sod2CJE(−/−) animals [1] (14 days old, n=8); 40% with Sod2CJE(−/−) animals [1] (17 days old, n=8). Besides, the “Lipid Mean (score)” value was found to be 0.9 in the series with Sod2CJE(−/−) animals [1] (12 days old, n=9); 0.9 with Sod2CJE(−/−) animals [1] (14 days old, n=8); 1.6 in the series on Sod2CJE(−/−) animals [1] (17 days old, n=8). Besides, the “Lipid Mode (score)” value in the series with Sod2CJE(−/−) animals [1] (12 days old, n=9) came out at 0; in the series with Sod2CJE(−/−) animals [1] (14 days old, n=8), 0.5; in the series with Sod2CJE(−/−) animals [1] (17 days old, n=8), 2. In the series with Sod2CJE(−/−) animals [1], the “accumulation of lipid in the liver” value is on record as “reduced”. For the same compound, the “tissue SDH inhibition” value in series [2] is on record as “still inhibited”. Moreover, the permeability to cells entry with cells is on record as “permeable to cells”. Moreover, the “crossing of the blood-brain barrier” value in series [4] is “does not cross the blood-brain barrier”. In addition, the “mean age of survival” value with Sod2CJE(−/−) mice (MnSOD(−/−) mice, 5 mg/kg daily intraperitoneal, all litters, n=31, ±SD) was 16.4 ± 5.8 days; in the series on Sod2CJE(−/−) mice (litters of more than six pups (unrestricted), ±SD), 16.1 ± 6.6 days. Besides, the “proportion of mice that lived to greater than or equal to 20 days of age” value in the series with Sod2CJE(−/−) mice (MnSOD(−/−) mice, 5 mg/kg daily intraperitoneal, n=31) was 70%. Moreover, the “Mean Lifespan” value with Sod2CJE(−/−) mice (setting [9]) came to 14 days; in the series on Sod2CJE(−/−) mice (setting [10]), 16.1; with Sod2CJE(−/−) mice (setting [11]), 16.6; in the series on Sod2CJE(−/−) mice (setting [12]), 16.4. The same compound gave a mean life-span in the series with Sod2CJE(−/−) mice of 16 days. Besides, the “Median (lifespan)” value turned out to be 21 in the series with Sod2CJE(−/−) mice (setting [10]), 19 in the series on Sod2CJE(−/−) mice (setting [11]) and 20 in the series on Sod2CJE(−/−) mice (setting [12]). Further, in the series on Sod2CJE(−/−) mice (litters with six or less pups (restricted), ±SD), the mean survival stood at 11.4 ± 4.8 days. The “transmission to the milk of nursing mothers” value in series [5] was “insufficient transmission”. Besides, the “toxicity (pathological changes in liver or brain)” value in series [6] is reported as “not toxic”. The “neurological and behavioral phenotype” value in the series with Sod2CJE(−/−) animals [3] is recorded as “progressive motor impairment”. In series [7], the “superoxide-degrading activity relative to Sod1/Sod2 when compared by weight” value is “about 10%”. In addition, in the series on Sod2CJE(−/−) animals [8], the “effect on cardiac defect (dilated cardiomyopathy)” value was “prevented the cardiac defect”.
